In US5055484A, “7(1H-pyrrol-3-YL)-substituted 3,5-dihydroxyhept-6-enoic acids, 7-(1H-pyrrol-3-YL)-substituted 3,5-dihyroxyhept-anoic acids, their corresponding delta-lactones and salts, their use as medicaments and pharmaceutical products and intermediates” (Hoechst Aktiengesellschaft, priority 1987, dated 1991):
pIC50: −log10 of the molar value.

Columns and labels:
[1] = target: T1, HMG--CoA reductase (Rattus norvegicus, UniProt P51639); assay: inhibition of HMG-CoA reductase activity on solubilized enzyme preparations from rat liver microsomes; type: biochemical
T1 sequence (P51639 1-887): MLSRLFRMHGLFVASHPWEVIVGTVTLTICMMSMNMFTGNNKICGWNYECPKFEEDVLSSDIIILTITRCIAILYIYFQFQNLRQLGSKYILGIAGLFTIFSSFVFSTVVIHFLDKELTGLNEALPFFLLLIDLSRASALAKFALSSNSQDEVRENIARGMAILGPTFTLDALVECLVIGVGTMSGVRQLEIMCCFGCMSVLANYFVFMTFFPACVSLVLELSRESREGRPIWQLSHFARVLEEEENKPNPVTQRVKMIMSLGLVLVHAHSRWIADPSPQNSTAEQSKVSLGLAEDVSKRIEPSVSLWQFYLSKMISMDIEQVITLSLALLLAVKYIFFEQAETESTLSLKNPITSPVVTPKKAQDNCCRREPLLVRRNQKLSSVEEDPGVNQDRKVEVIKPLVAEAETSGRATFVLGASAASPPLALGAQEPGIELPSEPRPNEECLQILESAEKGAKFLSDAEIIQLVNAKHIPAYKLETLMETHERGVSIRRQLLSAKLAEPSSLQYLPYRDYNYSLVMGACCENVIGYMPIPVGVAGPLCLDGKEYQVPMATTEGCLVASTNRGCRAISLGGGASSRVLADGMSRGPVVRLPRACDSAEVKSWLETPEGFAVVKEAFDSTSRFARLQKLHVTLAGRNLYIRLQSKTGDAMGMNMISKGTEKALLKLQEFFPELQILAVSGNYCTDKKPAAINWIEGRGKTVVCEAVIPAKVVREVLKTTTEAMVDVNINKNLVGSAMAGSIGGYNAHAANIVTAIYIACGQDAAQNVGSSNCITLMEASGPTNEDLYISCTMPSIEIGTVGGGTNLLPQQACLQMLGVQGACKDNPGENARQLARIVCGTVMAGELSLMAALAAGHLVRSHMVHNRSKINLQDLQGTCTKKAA
Method: The inhibition of HMG--CoA reductase activity by the compounds of the general formulae I and II was determined on solubilized enzyme preparations from rat liver microsomes.
After a changeover in the day/night rhythm of the rats, enzyme production was induced with cholestyramine (®Cuemid) The substrate used was (S,R) ^14 C--HMG--CoA, and the concentration of NADPH was maintained by a regenerating system during the incubation. ^14 C-mevalonate was removed from substrate and other products (for example ^14 C--HMG) by column elution, with the elution profile of each individual sample being determined. Inclusion of ^3 H-mevalonate throughout was dispensed with because the data to be determined were of the relative inhibitory effect. In each test series the enzyme-free control, the enzyme-containing normal mixture (=100%) and those with added products were treated together. Each individual value was formed as the mean of 3 parallel samples. The t test was used to assess the significance of the differences between the means for product-free and productcontaining samples.

[2] = tested on: cholesterol biosynthesis; assay: inhibition of cholesterol biosynthesis by incorporation of 14C-acetate into cholesterol in HEP G2 cell cultures; type: cell-based; settings: for % potency relative to mevinolin sodium at IC70: comparison of IC70 with mevinolin sodium salt (internal standard)
Method: In addition, the inhibition of cholesterol biosynthesis by selected compounds was tested by the incorporation of ^14 C-precursor in cholesterol in cell cultures.
Monolayers of HEP G2 cells in lipoprotein-free nutrient medium were preincubated with various concentrations of the test substances for 1 hour. The ^14 C-labeled precursor sodium ^14 C-acetate was added, and the incubation was then continued for 3 hours. Subsequently 3H-cholesterol was added as internal standard, and a portion of these cells underwent alkaline hydrolysis. The lipids from the hydrolyzed cells were extracted with chloroform/methanol. Carrier cholesterol was added to this lipid mixture which was then subjected to preparative thin-layer chromatography, the cholesterol band was visualized with iodine vapor and then isolated, and the amount of ^14 C-cholesterol formed from the ^14 C-precursor was determined by scintigraphy. Cellular protein was determined in an aliquot of the cells, so that the amount of ^14 C-cholesterol formed from ^14 C-precursor in unit time per mg of cellular protein can be calculated. The solvent control is used for comparison of the inhibitory effect of an added test product, so that it is possible to state directly the inhibition of cholesterol biosynthesis at a particular molar concentration of the test product in the medium. The integrity of the cell culture and the absence of cell damage due to exposure to the products was checked morphologically (light microscope) in an aliquot of the cell cultures. […] The relative potency was determined by comparing the IC70 values and IC50 values for the test compound and for mevinolin sodium salt (internal standard).

[3] = HEP G2 cells, 1 h preincubation, 3 h with 14C-acetate

| SMILES | pIC50 [1] | also measured |
| --- | --- | --- |
| COC(=O)C[C@H](O)C[C@H](O)CCc1c(-c2ccc(F)cc2)c(C)n(-c2ccccc2)c1C (racemic) [Example 3, Methyl 3(RS),5(RS)-dihydroxy-7-[1-phenyl-2,5-dimethyl-4-(4-fluorophenyl)-1H-pyrrol-3-yl]heptanoate] | 7.10 |  |
| Cc1c(CC[C@@H](O)C[C@@H](O)CC(=O)[O-])c(-c2ccc(F)cc2)c(C)n1-c1ccccc1.[Na+] (racemic) [Example 4, Sodium 3(RS),5(RS)-dihydroxy-7-[1-phenyl-2,5-dimethyl-4-(4-fluorophenyl)-1H-pyrrol-3-yl]heptanoate] | 8.06 | % potency relative to mevinolin sodium at IC50 ([2]; HEP G2 cells, 1 h preincubation, 3 h with 14C-acetate, comparison of IC50 with mevinolin sodium salt (internal standard)): 450%; % potency relative to mevinolin sodium at IC70 [2, 3]: 51% |
| CC(C)c1c(CC[C@@H](O)C[C@@H](O)CC(=O)[O-])c(-c2ccc(F)cc2)cn1-c1ccccc1.[Na+] (racemic) [Example 14, Sodium 3(RS),5(RS)-dihydroxy-7-[1-phenyl-2-isopropyl-4-(4-fluorophenyl)-1H-pyrrol-3-yl]heptanoate] | 8.52 | % potency relative to mevinolin sodium at IC70 [2, 3]: 150% |
| COC(=O)C[C@H](O)C[C@H](O)CCc1c(-c2ccc(F)cc2)cn(C(C)C)c1C (racemic) [Example 17, Methyl 3(RS),5(RS)-dihydroxy-7-[1-isopropyl-2-methyl-4-(4-fluorophenyl)-1H-pyrrol-3-yl]heptanoate] | 7.00 |  |
| COC(=O)C[C@H](O)C[C@H](O)/C=C/c1c(-c2ccc(F)cc2)c(C)n(-c2ccccc2)c1C (relative stereo) [Example 1, methyl 3(RS),5(SR)-dihydroxy-7-[1-phenyl-2,5-dimethyl-4-(4-fluorophenyl)-1H-pyrrol-3-yl]hept-6(E)-enoate] | 6.49 | % potency relative to mevinolin sodium at IC70 [2, 3]: 180% |
| Cc1c(/C=C/[C@@H](O)C[C@@H](O)CC(=O)O)c(-c2ccc(F)cc2)c(C)n1-c1ccccc1 (relative stereo) [Example 2, Sodium 3(RS),5(SR)-dihydroxy-7-[1-phenyl-2,5-dimethyl-4-(4-fluorophenyl)-1H-pyrrol-3-yl]hept-6(E)-enoate] | 6.92 |  |
| COC(=O)C[C@H](O)C[C@H](O)/C=C/c1c(-c2ccc(F)cc2)cn(-c2ccccc2)c1C (relative stereo) [Example 9, methyl 3(RS),5(SR)-dihydroxy-7-[1-phenyl-2-methyl-4-(4-fluorophenyl)-1H-pyrrol-3-yl]hept-6(E)-enoate] | 6.92 |  |
| COC(=O)C[C@H](O)C[C@H](O)/C=C/c1c(-c2ccc(F)cc2)cn(C(C)C)c1C (relative stereo) [Example 15, methyl 3(RS),5(SR)-dihydroxy-7-[1-isopropyl-2-methyl-4-(4-fluorophenyl)-1H-pyrrol-3-yl]hept-6(E)-enoate] | 7.15 |  |
| Cc1c(/C=C/[C@@H](O)C[C@@H](O)CC(=O)O)c(-c2ccc(F)cc2)cn1C(C)C (relative stereo) [Example 16, Sodium 3(RS),5(SR)-dihydroxy-7-[1-isopropyl-2-methyl-4-(4-fluorophenyl)-1H-pyrrol-3-yl]hept-6(E)-enoate] | 6.80 |  |
| CC[C@H](C)C(=O)O[C@H]1C[C@@H](C)C=C2C=C[C@H](C)[C@H](CC[C@@H](O)C[C@@H](O)CC(=O)O)[C@H]21 [mevinolin sodium, reference compound] |  | IC70 ([2]; Homo sapiens, HepG2): 150 nM; pIC50 ([2]; Homo sapiens, HepG2, HEP G2 cells, mean figure, varies somewhat from cell culture to cell culture): 7.30 |

More lines, in order of rising pIC50 [1], values ahead:

| pIC50 [1] | SMILES | also measured |
| --- | --- | --- |
| 7.30 | Cc1c(CC[C@@H](O)C[C@@H](O)CC(=O)O)c(-c2ccc(F)cc2)cn1C(C)C (racemic) [Example 18, Sodium 3(RS),5(RS)-dihydroxy-7-[1-isopropyl-2-methyl-4-(4-fluorophenyl)-1H-pyrrol-3-yl]heptanoate] |  |
| 7.82 | COC(=O)C[C@H](O)C[C@H](O)CCc1c(-c2ccc(F)cc2)cn(-c2ccccc2)c1C(C)C (racemic) [Example 13, Methyl 3(RS),5(RS)-dihydroxy-7-[1-phenyl-2-isopropyl-4(4-fluorophenyl)-1H-pyrrol-3-yl]heptanoate] |  |
| 7.92 | CC(C)c1c(/C=C/[C@@H](O)C[C@@H](O)CC(=O)O)c(-c2ccc(F)cc2)cn1C1CCCCC1 (relative stereo) [Example 20, Sodium 3(RS),5(SR)-dihydroxy-7-[1-cyclohexyl-2-isopropyl-4(4-fluorophenyl)-1H-pyrrol-3-yl]hept-6(E)-enoate] |  |
| 8.10 | COC(=O)C[C@H](O)C[C@H](O)CCc1c(-c2ccc(F)cc2)c(C)n(-c2ccccc2)c1C(C)C (racemic) [Example 7, Methyl 3(RS),5(RS)-dihydroxy-7-[1-phenyl-2-isopropyl-4-(4-fluorophenyl)-5-methyl-1H-pyrrol-3-yl]heptanoate] |  |
| 8.10 | COC(=O)C[C@H](O)C[C@H](O)/C=C/c1c(-c2ccc(F)cc2)cn(-c2ccccc2)c1C(C)C (relative stereo) [Example 11, methyl 3(RS),5(SR)-dihydroxy-7-[1-phenyl-2-isopropyl-4-(4-fluorophenyl)-1H-pyrrol-3-yl]hept-6(E)-enoate] |  |
| 8.15 | COC(=O)C[C@H](O)C[C@H](O)/C=C/c1c(-c2ccc(F)cc2)c(C)n(-c2ccccc2)c1C(C)C (relative stereo) [Example 5, Methyl 3(RS),5(SR)-dihydroxy-7-[1-phenyl-2-isopropyl-4-(4-fluorophenyl)-5-methyl-1H-pyrrol-3-yl]hept-6(E)-enoate] |  |
| 8.52 | CC(C)c1c(CC[C@@H](O)C[C@@H](O)CC(=O)O)c(-c2ccc(F)cc2)cn1C(C)C (racemic) [Example 26, Sodium 3(RS),5(RS)-dihydroxy-7-[1,2-diisopropyl-4-(4-fluorophenyl)-1H-pyrrol-3-yl]heptanoate] |  |
| 8.60 | Cc1c(-c2ccc(F)cc2)c(CC[C@@H](O)C[C@@H](O)CC(=O)O)c(C(C)C)n1-c1ccccc1 (racemic) [Example 8, Sodium 3(RS),5(RS)-dihydroxy-7-[1-phenyl-2-isopropyl-4-(4-fluorophenyl)-5-methyl-1H-pyrrol-3-yl]heptanoate] |  |
